Source: patent publication US20260115185A1, “QUINOLINE DERIVATIVES WHICH ACT AS KAPPA-OPIOID RECEPTOR ANTAGONISTS” (The Scripps Research Institute, priority 2023, published 2026)

Legend:
[1] = biological target: T1, kappa opioid receptor (KOR) (Homo sapiens, UniProt P41145); test: OPRKappa 1 Tango B-Arrestin Assay, antagonist mode (Tango OPRK1-bla U2OS cells, U50488 EC80 challenge); format: cell-based; conditions: for Selectivity (MOR/KOR): Kappa selectivity, MOR IC50 / KOR IC50; for IC50: antagonist mode, Tango OPRK1-bla U2OS cells, 6 nM U50488 challenge
T1 construct: host or cells: U2OS (Tango OPRK1-bla U2OS)
Text: OPRKappa 1 Tango B-Arrestin Assay Protocol-Antagonist Mode. […] The assay uses Tango OPRK1-bla U2OS cells which express OPRK1 linked to a GAL4-VP16 transcription factor via a TEV protease site. The cells also express a β-arrestin/TEV protease fusion protein and a β-lactamase (BLA) reporter gene under the control of a UAS response element. Stimulation of the OPRK1 receptor by agonist causes migration of the β-arrestin fusion protein to the GPCR, and through proteolysis liberates GAL4-VP16 from the receptor. The liberated VP16-GAL4 migrates to the nucleus, where it induces transcription of the BLA gene. BLA expression is monitored by measuring fluorescence resonance energy transfer (FRET) of a cleavable, fluorogenic, cell-permeable BLA substrate. As designed, test compounds that are OPRK1 antagonists inhibit agonist activation and migration of the fusion protein, thus preventing proteolysis of GAL4-VP16 and BLA transcription, leading to no increase in well FRET. Compounds were tested in quadruplicate using a 10-point, 1:3 dilution series starting at a nominal concentration of 10 micromolar.
The Tango OPRK1-U20S Dividing cell line was routinely cultured in 150 mm dishes at 37C, 5% CO2 and 95% relative humidity (RH).
On Day 1 of the assay, 16,000 cells in 10 μL of assay media (DMEM-Glutamax—with Sodium Pyruvate, 10% fetal bovine serum stripped with charcoal-dextran (CDS), 25 mM HEPES, 0.1 mM non-essential amino acids, antibiotic mix (penicillin streptomycin)) were seeded into each well of a 384 Greiner 788092 black low profile, clear bottom, low volume plate, and incubated 16-24 hours at 37° C., 5% CO2 and 95% (RH).
On Day 2, 50 nL of test compound in DMSO was added to the appropriate wells and plates were incubated for 30 min at 37° C. 5% CO2 and 95% (RH). Next was added 0.65 μL of commercially available U50488 OPRK1 agonist or DMSO in assay media: this EC80 Challenge consists of 0.6 μL of 111 nM U50488 to yield a final assay concentration of 6 nM). After incubation for 4 hours at 37° C., 5% CO2 and 95% (RH), 2.5 μL of LiveBLazer™FRET B/G (CCF4-AM) Mix (Soln.'s A,B,C,&D) was added to each well and incubated at room temperature in the dark for 2 hours. Well fluorescence was measured on Perkin Elmer's Envision using an Excitation filter 409 nm, Emission filters at 460 nm and […], bottom read.
(§1) The Percent Inhibition was calculated from the median ratio as follows:
• Tango™OPRK1-bla U20S Cells (Invitrogen K1576) • McCoy's 5A Medium, (Invitrogen 16600-082) • Dialyzed Fetal Bovine Serum, (Invitrogen 26400-036) • Non Essential Amino Acids 100× (Invitrogen part 11140-050) • HEPES (pH 7.3) 1M, (Invitrogen 15630-080) • Sodium Pyruvate 100× (Invitrogen 11360-070) • Penicillin Streptomycin, (Invitrogen 15640) • Trypsin 0.25% EDTA (Invitrogen 25200056) • DPBS without Calcium/Magnesium (Invitrogen 14190-136) • DMEM, High Glucose, GlutaMAX (Invitrogen 10569-010) • Fetal Bovine Serum, Charcoal Stripped (Invitrogen 12676-011) • DMSO Dry (Sigma D2650) • U50488 OPRK1 Agonist MW410.29 (Tocris 67198-19-0) • GNTI dihydrochloride OPRK1 Antagonist MW571.5 (Tocris 1282) • Nor-Binaltorphimine dihydrochloridc MW770.75 (Tocris 0347)
LiveBLAzere™-FRET/BG Loading Mix: (Invitrogen K1030 (5 mg)), composed of Solutions A, B, C, and D: • Solution A (6 μL): LiveBLAzer™-FRET/BG Substrate (CCF4-AM) • Solution B (60 μL) • Solution C (904 μL) • Solution C (must add 250 μl of 1N NaOH to 45 mL of Solution C prior to use) • Solution D (30 μL) [Probinicid] (Sigma P8161) make 200 mM stock in NaOH—H2O.

mu opioid receptor (MOR) = biological target: T2, mu opioid receptor (MOR) (Homo sapiens, UniProt P35372); test: OPRMu1 Discover X β-arrestin Assay, antagonist mode (U2OS cells, DAMGO EC80 challenge); format: cell-based
T2 construct: host or cells: U2OS (Discover X OPRMu1-U2OS, PathHunter)
Text: OPRMu1 Discover X—β-arrestin Assay—Antagonist Mode. […] This assay evaluates the OPRMu1 activation in membrane recruitment of β-arrestin. In addition, the assay evaluates GPCR-β-arrestin proximity using low affinity fragment complementation of beta-galactosidase (beta-gal). The assay employs U20S cells, which express OPRMu1 fused to the complementary beta-gal fragment (enzyme acceptor). As designed, compounds that act as antagonists will prevent receptor activation resulting in reduced well luminescence. Compounds were tested in quadruplicate using a 10-point, 1:3 dilution series starting at a nominal concentration of 10 micromolar.
The Discover X OPRMu1-U20S cell line was cultured in 150 mm dishes at 37° C., 5% CO2 and 95% relative humidity (RH).
On Day 1 of the assay, 5000 cells in 20 μL of assay buffer (Discover X's Cell Plating Reagent 5) were seeded into each well of a 384 Corning 3570 standard white plate, and incubated 16-24 hours at 37° C., 5% CO2 and 95% RH.
On Day 2, 100 nL of test compound in DMSO were added to the appropriate wells and the plates were then incubated for 30 min at 37° C. 5% CO2 and 95% RH. Next, 2.2 μL of DAMGO OPRMu1 agonist (commercially available) or DMSO in assay media. (The EC80 Challenge consists of 1.8 μL of 3.7 μM DAMGO, 0.4 μL of Assay Buffer, with a final assay concentration of 303 nM). After incubation for 3 hours at 37° C. 5% CO2, and 95% RH, 10 μL of Path Hunter Detection Mix was added to each well, and the plate was then incubated at room temperature in the dark for 1 hour. Well luminescence was measured on Perkin Elmer's Envision.
as §1
• DMEM Medium, (Invitrogen 11965) • F12 Medium, (Invitrogen 11765) • Heat Inactivated Fetal Bovine Serum, (Invitrogen 10082147) • Non Essential Amino Acids 100× (Invitrogen 11140-050) • HEPES (pH 7.3) 1M, (Invitrogen 15630-080) • Sodium Pyruvate 100× (Invitrogen 11360-070) • Penicillin Streptomycin, (Invitrogen 15640) • Trypsin 0.25% EDTA (Invitrogen 25200056) • DPBS without Calcium/Magnesium (Invitrogen 14190-136) • DMSO Dry (Sigma D2650) • DAMGO OPRMu1 Agonist MW513.19 (Sigma E7384-5MG) • B-Funaltrexamine Hydrochloride OPRM1 Antagonist MW (SIGMA 0003-2MG) • PathHunter Cell Plating 5 Reagent (Discover X 93-0563R5A) • Corning 3750 Standard 384 well white plate with lid.
PathHunter Detection Mix (DiscoverX 93-0001): 1 part Galacton Star/5 parts Emerald II/19 parts PH Cell Assay Buffer.

T2 sequence (P35372 whole entry): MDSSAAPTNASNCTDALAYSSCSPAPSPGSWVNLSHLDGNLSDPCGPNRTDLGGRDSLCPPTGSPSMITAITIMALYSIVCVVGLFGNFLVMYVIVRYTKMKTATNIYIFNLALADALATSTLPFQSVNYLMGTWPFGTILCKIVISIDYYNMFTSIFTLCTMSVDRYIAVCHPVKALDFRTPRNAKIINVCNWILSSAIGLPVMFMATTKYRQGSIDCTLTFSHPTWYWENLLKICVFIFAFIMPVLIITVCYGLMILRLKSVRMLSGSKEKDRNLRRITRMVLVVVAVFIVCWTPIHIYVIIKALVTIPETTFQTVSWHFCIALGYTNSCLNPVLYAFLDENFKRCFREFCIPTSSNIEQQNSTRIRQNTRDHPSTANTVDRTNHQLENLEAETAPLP
T1 sequence (P41145 whole entry): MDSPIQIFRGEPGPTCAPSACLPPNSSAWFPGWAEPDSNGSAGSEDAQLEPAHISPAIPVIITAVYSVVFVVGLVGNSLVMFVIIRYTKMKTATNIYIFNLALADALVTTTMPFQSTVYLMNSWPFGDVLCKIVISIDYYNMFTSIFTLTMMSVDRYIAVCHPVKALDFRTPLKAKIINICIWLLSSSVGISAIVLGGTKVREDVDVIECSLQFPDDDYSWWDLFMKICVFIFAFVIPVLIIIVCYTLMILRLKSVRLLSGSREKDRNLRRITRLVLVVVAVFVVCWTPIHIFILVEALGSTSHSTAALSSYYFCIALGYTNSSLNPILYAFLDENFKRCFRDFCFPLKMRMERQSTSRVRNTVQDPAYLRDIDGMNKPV

| Structure (SMILES) | IC50 [1] [nM] | IC50 (mu opioid receptor (MOR)) [nM] | Selectivity (MOR/KOR) [1] |
| --- | --- | --- | --- |
| CCc1cc(F)c2nc(N3CCN(C(=O)C(C)(C)N4CCCC4)C[C@H]3C)c(-c3cc(C)no3)c(C)c2c1 [Compound 179] | 10 to 100 | > 1000 | ++ (between 10- and 100-fold selectivity) |
| CCc1cc(F)c2nc(N3CCN(CC4(F)CCOCC4)C[C@H]3C)c(-c3nc(C)no3)c(C)c2c1 [Compound 207, (R)-5-(6-ethyl-8-fluoro-2-(4-((4-fluorotetrahydro-2H-pyran-4-yl)methyl)-2-methylpiperazin-1-yl)-4-methylquinolin-3-yl)-3-methyl-1,2,4-oxadiazole] | 1 to 10 | > 1000 | ++++ (more than 1000-fold selectivity over MOR) |
| CCc1cc(F)c2nc(N3CCN(C(=O)CCN4CCCC4)C[C@H]3C)c(-c3nc(C)no3)c(C)c2c1 [Compound 190] | 1 to 10 | 100 to 1000 | ++ (between 10- and 100-fold selectivity) |
| CCc1cc(F)c2nc(N3CCC(N[C@H]4CCCC(F)(F)C4)CC3)c(-c3cc(C)n(C)n3)c(C)c2c1 [Compound 67] | 1 to 10 | 10 to 100 | ++ (between 10- and 100-fold selectivity) |
| CCc1cc(F)c2nc(N3CCN(C[C@@H]4CCCO4)C[C@H]3CC)c(-c3nc(C)no3)c(C)c2c1 [Compound 35] | 10 to 100 | > 1000 | ++ (between 10- and 100-fold selectivity) |
| CCc1cc(F)c2nc(N3CCN(CC4CCOCC4)C[C@H]3C)c(-c3cc(C)no3)c(C)c2c1 [Compound 63, (R)-5-(6-ethyl-8-fluoro-4-methyl-2-(2-methyl-4-((tetrahydro-2H-pyran-4-yl)methyl)piperazin-1-yl)quinolin-3-yl)-3-methylisoxazole] | 10 to 100 | > 1000 | +++ (between 100- to 1000-fold selective) |
| CCc1cc(-c2ccn(C)n2)c2nc(N3CCNC[C@H]3C)c(-c3nc(C)no3)c(C)c2c1 [Compound 104] | 10 to 100 | > 1000 | +++ (between 100- to 1000-fold selective) |
| CCc1cc(-c2cnn(CCO)c2)c2nc(N3CCNC[C@H]3C)c(-c3nc(C)no3)c(C)c2c1 [Compound 106] | ≥ 100 | > 1000 | ++ (between 10- and 100-fold selectivity) |
| CCc1cc(F)c2nc(N3CCN(C(=O)CN4CC[C@@H](O)C4)C[C@H]3C)c(-c3nc(C)no3)c(C)c2c1 [Compound 145] | 1 to 10 | > 1000 | ++++ (more than 1000-fold selectivity over MOR) |

The next lines start with results.

| IC50 [1] [nM] | IC50 (mu opioid receptor (MOR)) [nM] | Structure (SMILES) | Selectivity (MOR/KOR) [1] |
| --- | --- | --- | --- |
| ≥ 100 | > 1000 | CCc1cc(F)c2nc(N3CC[C@@H]4[C@@H](CCN4C[C@@H]4CCCOC4)C3)c(-c3ccn(C)n3)c(C)c2c1 [Compound 128] | ++ (between 10- and 100-fold selectivity) |
| 1 to 10 | > 1000 | CCc1cc(F)c2nc(N3CCN(C[C@H]4CCOC4)C[C@H]3C)c(-c3nc(C)no3)c(C)c2c1 [Compound 202] | ++++ (more than 1000-fold selectivity over MOR) |
| 10 to 100 | > 1000 | CCc1cc(F)c2nc(N3CC[C@H]4[C@H](CCN4C[C@@H]4CCOC4)C3)c(-c3ccn(C)n3)c(C)c2c1 (stereo in doubt) [Compound 129] | ++ (between 10- and 100-fold selectivity) |
| 10 to 100 | > 1000 | CCc1cc(F)c2nc(N3CCN(C(=O)[C@@H](C)N(CC)CC)C[C@H]3C)c(-c3ccn(C)n3)c(C)c2c1 [Compound 170] | +++ (between 100- to 1000-fold selective) |
| 1 to 10 | 100 to 1000 | CCc1cc(F)c2nc(N3CCC(N[C@H]4CCCC(F)(F)C4)CC3)c(-c3ccn(C)n3)c(C)c2c1 [Compound 73, (S)—N-(3,3-difluorocyclohexyl)-1-(6-ethyl-8-fluoro-4-methyl-3-(1-methyl-1H-pyrazol-3-yl)quinolin-2-yl)piperidin-4-amine] | ++ (between 10- and 100-fold selectivity) |
| 1 to 10 | 100 to 1000 | CCc1cc(F)c2nc(N3CCC(N[C@H]4CCOC[C@@H]4F)CC3)c(-c3cc(C)n(C)n3)c(C)c2c1 [Compound 3, 1-(3-(1,5-dimethyl-1H-pyrazol-3-yl)-6-ethyl-8-fluoro-4-methylquinolin-2-yl)-N-((3R,4S)-3-fluorotetrahydro-2H-pyran-4-yl)piperidin-4-amine] | +++ (between 100- to 1000-fold selective) |
| 10 to 100 | > 1000 | CCc1cc(C#N)c2nc(N3CCC(N4CCOC[C@@H]4C)CC3)c(-c3ccn(C)n3)c(C)c2c1 [Compound 81] | ++ (between 10- and 100-fold selectivity) |
| 1 to 10 | > 1000 | CCc1cc(-c2cc(C)nn2C)c2nc(N3CC[C@H](NC4CCOCC4)[C@H](F)C3)c(-c3ccn(C)n3)c(C)c2c1 [Compound 96] | +++ (between 100- to 1000-fold selective) |
| 1 to 10 | 100 to 1000 | CCc1cc(F)c2nc(N3CC[C@H](N[C@@H]4CCOC4)C[C@@H]3C)c(-c3ccn(C)n3)c(C)c2c1 [Compound 117] | +++ (between 100- to 1000-fold selective) |
